Read-outs that look alike come from different tables or passages of the source.
Assays:
KRas G12C [1] = molecular target: KRas G12C (Homo sapiens, UniProt P01116, G12C); experiment: Cellular inhibition of KRas G12C measured by Phospho-ERK in NCI-H358 cells; type: cell-based
How it was run: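 NCI-H358 cells treated 3 h with compound (0.5% DMSO final), then fixed and methanol-permeabilised. In-cell immunofluorescence measured pERK(Thr202/Tyr204) normalised to GAPDH as percent of DMSO control. IC50 from a 4-parameter dose-response fit.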

KRas G12C [2] = molecular target: KRas G12C (Homo sapiens, UniProt P01116, C118S/C51S/C80L/G12C); experiment: KRas G12C Modification Assay (LCMS detection of covalent adduct); type: binding
Protocol: A 10 μL aliquot of each protein solution was then transferred to a 384 well microtiter plate. Initial compound stocks were generated at fifty times their desired final assay concentration in DMSO.
Exemplary compounds of Formula (I) were diluted 25-fold into K-Ras Assay Buffer to a final of two times their final concentration. A 10 μL aliquot of each diluted compound solution was then added to each of the protein solutions in the microtiter plate to initiate reaction. […] At each time point, the reactions were quenched with 20 μL of a 25 mM acetic acid solution. […] Once all reactions were quenched, the plates were heat sealed and the samples were injected into a LC/MS system for data acquisition.
Samples were injected in their liquid phase onto a C-3 reverse phase column to remove assay buffer and prepare the samples for mass spectrometer. The proteins were eluted from the column using an acetonitrile gradient and fed directly into the mass analyzer. Initial raw data analysis took place in Agilent MassHunter software immediately post data acquisition.
Raw data analysis of the intact protein was exclusively a deconvolution of the multiple charge states of each protein in solution using a maximum entropy deconvolution provided in Mass Hunter. To minimize complexity, only the data over limited mass ranges were considered for analysis, with a minimum of one Dalton mass step intervals. The heights of all masses identified during raw data analysis were exported to be further analyzed in Spotfire® data analysis software.
Final data analysis was a multistep process in the Spotfire® data analysis software package. Briefly, each protein mass was calculated as a percent of the total signal of that sample, that percentage was then normalized to the percentage of signal of the protein in the absence of reactive compounds. Those normalized signals were reported as normalized percent of control (POC). […] Key: “A”≤25% POC; “B”>25% POC-≤50% POC; “C”>50% POC and ND=not determined.

[3] = pERK(Thr202/Tyr204) normalized with GAPDH, NCI-H358 cells, 3 hours, read-out: IC50
[4] = normalized percent of control, 5 μM concentration for 3 hours

Row | SMILES | IC50 (KRas G12C [1]; [3]) | POC (KRas G12C [2]; [4]) | POC (KRas G12C [2]; 5 µM) | IC50 (KRas G12C [1]; IC50)
1 | C=CC(=O)N1CCN(c2nc(O[C@H](C)CN(C)CC)nc3c2CCN(c2cc(O)cc4ccccc24)C3)CC1 [Example 131, 1-[4-[2-[(1R)-2-[ethyl(methyl)amino]-1-methyl-ethoxy]-7-(3-hydroxy-1-naphthyl)-6,8-dihydro-5H-pyrido[3,4-d]pyrimidin-4-yl]piperazin-1-yl]prop-2-en-1-one] | 0.1 to 1000 nM | C (“C”>50% POC) | – | –
2 | C=CC(=O)N1CCN(c2nc(OC[C@@H]3CCCN3C)nc3c2CCN(c2cccc4ccccc24)C3)CC1CC#N (stereo partly drawn) [Example 147, 2-[4-[2-[[(2S)-1-methylpyrrolidin-2-yl]methoxy]-7-(1-naphthyl)-6,8-dihydro-5H-pyrido[3,4-d]pyrimidin-4-yl]-1-prop-2-enoyl-piperazin-2-yl]acetonitrile] | 0.1 to 1000 nM | C (“C”>50% POC) | – | –
3 | C=CC(=O)N1CCN(c2nc(OC[C@@H]3CCCN3C)nc3c2CCN(c2c(C)ccc4[nH]ncc24)C3)CC1CC#N (stereo partly drawn) [Example 148, 2-[4-[7-(5-methyl-1H-indazol-4-yl)-2-[[(2S)-1-methylpyrrolidin-2-yl]methoxy]-6,8-dihydro-5H-pyrido[3,4-d]pyrimidin-4-yl]-1-prop-2-enoyl-piperazin-2-yl]acetonitrile] | 0.1 to 1000 nM | C (“C”>50% POC) | – | –
4 | C=CC(=O)N1CCN(c2nc(OC[C@@H]3CCCN3C)nc3c2CCN(c2c(C(F)(F)F)ccc4[nH]ncc24)C3)CC1CC#N (stereo partly drawn) [Example 149, 2-[4-[2-[[(2S)-1-methylpyrrolidin-2-yl]methoxy]-7-[5-(trifluoromethyl)-1H-indazol-4-yl]-6,8-dihydro-5H-pyrido[3,4-d]pyrimidin-4-yl]-1-prop-2-enoyl-piperazin-2-yl]acetonitrile] | 0.1 to 1000 nM | B (“B”>25% POC-≤50% POC) | – | –
5 | C=CC(=O)N1CCN(c2nc(OC[C@@H]3CCCN3C)nc3c2CCN(c2c(C)ccc4[nH]ncc24)C3)CC1 [Example 155, (S)-1-(4-(7-(5-methyl-1H-indazol-4-yl)-2-((1-methylpyrrolidin-2-yl)methoxy)-5,6,7,8-tetrahydropyrido[3,4-d]pyrimidin-4-yl)piperazin-1-yl)prop-2-en-1-one] | 0.1 to 1000 nM | – | C (key: “A”≤25% POC; “B”>25% POC-≤50% POC; “C”>50% POC) | –
6 | C=CC(=O)N1CCN(c2nc(OC[C@@H]3CCCN3C)nc3c2CCN(c2ccccc2C(C)C)C3)CC1 [Example 158, 1-[4-[7-(2-isopropylphenyl)-2-[[(2S)-1-methylpyrrolidin-2-yl]methoxy]-6,8-dihydro-5H-pyrido[3,4-d]pyrimidin-4-yl]piperazin-1-yl]prop-2-en-1-one] | > 1000 nM | C (“C”>50% POC) | – | –
7 | C=CC(=O)N1CCN(c2nc(OCCCN3CCOCC3)nc3c2CCN(c2c(F)c(O)cc4ccccc24)C3)CC1 [Example 165, 1-[4-[7-(2-fluoro-3-hydroxy-1-naphthyl)-2-(3-morpholinopropoxy)-6,8-dihydro-5H-pyrido[3,4-d]pyrimidin-4-yl]piperazin-1-yl]prop-2-en-1-one] | > 1000 nM | – | C (key: “A”≤25% POC; “B”>25% POC-≤50% POC; “C”>50% POC) | –
8 | C=CC(=O)N1CCN(c2nc(OCCCN3CCOCC3)nc3c2CCN(c2cc(O)cc4sc(C)nc24)C3)CC1 [Example 166, 1-[4-[7-(6-hydroxy-2-methyl-1,3-benzothiazol-4-yl)-2-(3-morpholinopropoxy)-6,8-dihydro-5H-pyrido[3,4-d]pyrimidin-4-yl]piperazin-1-yl]prop-2-en-1-one] | > 1000 nM | – | B (key: “A”≤25% POC; “B”>25% POC-≤50% POC; “C”>50% POC) | –
9 | C=CC(=O)N1CCN(c2nc(OCCCN3CCOCC3)nc3c2CCN(c2cc(O)cc4cc(C)[nH]c24)C3)CC1 [Example 167, 1-(4-(7-(5-hydroxy-2-methyl-1H-indol-7-yl)-2-(3-morpholinopropoxy)-5,6,7,8-tetrahydropyrido[3,4-d]pyrimidin-4-yl)piperazin-1-yl)prop-2-en-1-one] | > 1000 nM | B (“B”>25% POC-≤50% POC) | – | –
10 | C=CC(=O)N1CCN(c2nc(OCCN(C)C)nc3c2CCN(c2cc(O)cc4ccccc24)C3)CC1CCO (stereo not shown) [Example 171, 1-(4-(2-(2-(dimethylamino)ethoxy)-7-(3-hydroxynaphthalen-1-yl)-5,6,7,8-tetrahydropyrido[3,4-d]pyrimidin-4-yl)-2-(2-hydroxyethyl)piperazin-1-yl)prop-2-en-1-one] | – | – | C (key: “A”≤25% POC; “B”>25% POC-≤50% POC; “C”>50% POC) | > 1000 nM
11 | C=CC(=O)N1CCN(c2nc(OCCCN3CCOCC3)nc3c2CCN(c2c(C)c(O)cc4ccccc24)C3)CC1 [Example 173, 1-(4-(7-(3-hydroxy-2-methylnaphthalen-1-yl)-2-(3-morpholinopropoxy)-5,6,7,8-tetrahydropyrido[3,4-d]pyrimidin-4-yl)piperazin-1-yl)prop-2-en-1-one] | > 1000 nM | C (“C”>50% POC) | – | –
12 | C=CC(=O)N1CCN(c2nc(OC[C@@H]3CCCN3C)nc3c2CCN(c2c(C)c(O)cc4ccccc24)C3)CC1 [Example 175, (S)-1-(4-(7-(3-hydroxy-2-methylnaphthalen-1-yl)-2-((1-methylpyrrolidin-2-yl)methoxy)-5,6,7,8-tetrahydropyrido[3,4-d]pyrimidin-4-yl)piperazin-1-yl)prop-2-en-1-one] | 0.1 to 1000 nM | C (“C”>50% POC) | – | –
13 | C=CC(=O)N1CCN(c2nc(OC[C@@H]3CCN(C)C3)nc3c2CCN(c2cccc4ccccc24)C3)CC1CC#N (stereo partly drawn) [Example 177, 2-[4-[2-[[(3R)-1-methylpyrrolidin-3-yl]methoxy]-7-(1-naphthyl)-6,8-dihydro-5H-pyrido[3,4-d]pyrimidin-4-yl]-1-prop-2-enoyl-piperazin-2-yl]acetonitrile] | 0.1 to 1000 nM | C (“C”>50% POC) | – | –
14 | C=CC(=O)N1CCN(c2nc(OCCCN3CCOCC3)nc3c2CCN(c2c(C(F)(F)F)ccc4[nH]ncc24)C3)CC1 [Example 180, 1-[4-[2-(3-morpholinopropoxy)-7-[5-(trifluoromethyl)-1H-indazol-4-yl]-6,8-dihydro-5H-pyrido[3,4-d]pyrimidin-4-yl]piperazin-1-yl]prop-2-en-1-one] | 0.1 to 1000 nM | C (“C”>50% POC) | – | –
15 | C=C(F)C(=O)N1CCN(c2nc(OC[C@@H]3CC(C)(C)CN3C)nc3c2CCN(c2cccc4cccc(C)c24)C3)C[C@@H]1CC#N [Example 615, 2-[(2S)-1-(2-fluoroprop-2-enoyl)-4-[7-(8-methyl-1-naphthyl)-2-[[(2S)-1,4,4-trimethylpyrrolidin-2-yl]methoxy]-6,8-dihydro-5H-pyrido[3,4-d]pyrimidin-4-yl]piperazin-2-yl]acetonitrile] | 0.1 to 1000 nM | – | – | –
16 | C=C(F)C(=O)N1CCN(c2nc(OC[C@@H]3C[C@H](C)CN3C)nc3c2CCN(c2cccc4cccc(C)c24)C3)C[C@@H]1CC#N [Example 616, 2-[(2S)-4-[2-[[(2S,4S)-1,4-dimethylpyrrolidin-2-yl]methoxy]-7-(8-methyl-1-naphthyl)-6,8-dihydro-5H-pyrido[3,4-d]pyrimidin-4-yl]-1-(2-fluoroprop-2-enoyl)piperazin-2-yl]acetonitrile] | 0.1 to 1000 nM | – | – | –
17 | C=C(F)C(=O)N1CCN(c2nc(OC[C@@H]3CCCN3C)nc3c2CCN(c2c(C)ncc4ccccc24)C3)C[C@@H]1CC#N [Example 617] | > 1000 nM | – | – | –
18 | C=C(F)C(=O)N1CCN(c2nc(OC[C@@H]3CCCN3C)nc3c2CCN(c2cncc4cc(F)ccc24)C3)C[C@@H]1CC#N [Example 618, 2-[(2S)-4-[7-(7-fluoro-4-isoquinolyl)-2-[[(2S)-1-methylpyrrolidin-2-yl]methoxy]-6,8-dihydro-5H-pyrido[3,4-d]pyrimidin-4-yl]-1-(2-fluoroprop-2-enoyl)piperazin-2-yl]acetonitrile] | > 1000 nM | – | – | –
19 | C=C(F)C(=O)N1CCN(c2nc(OC[C@@H]3CCCN3C)nc3c2CCN(c2cncc4cccc(C)c24)C3)C[C@@H]1CC#N [Example 619, 2-[(2S)-1-(2-fluoroprop-2-enoyl)-4-[7-(5-methyl-4-isoquinolyl)-2-[[(2S)-1-methylpyrrolidin-2-yl]methoxy]-6,8-dihydro-5H-pyrido[3,4-d]pyrimidin-4-yl]piperazin-2-yl]acetonitrile] | 0.1 to 1000 nM | – | – | –
20 | C=C(F)C(=O)N1CCN(c2nc(OC[C@@H]3CCCN3C)nc3c2CCN(c2cccc4cccc(Cl)c24)C3)[C@@H](C(F)F)C1 [Example 621, 1-[(3R)-4-[7-(8-chloro-1-naphthyl)-2-[[(2S)-1-methylpyrrolidin-2-yl]methoxy]-6,8-dihydro-5H-pyrido[3,4-d]pyrimidin-4-yl]-3-(difluoromethyl)piperazin-1-yl]-2-fluoro-prop-2-en-1-one] | > 1000 nM | – | – | –

— US10689377B2 (Mirati Therapeutics, Inc., priority 2017, dated 2020)
